# Measured values reported in PMC2952445 (The journal of pain : official journal of the American Pain …, 2009).
# Biological target: mu opioid peptide (MOP) receptor (mouse brain) (Mus musculus, UniProt P42866)
# Sequence (P42866 whole entry): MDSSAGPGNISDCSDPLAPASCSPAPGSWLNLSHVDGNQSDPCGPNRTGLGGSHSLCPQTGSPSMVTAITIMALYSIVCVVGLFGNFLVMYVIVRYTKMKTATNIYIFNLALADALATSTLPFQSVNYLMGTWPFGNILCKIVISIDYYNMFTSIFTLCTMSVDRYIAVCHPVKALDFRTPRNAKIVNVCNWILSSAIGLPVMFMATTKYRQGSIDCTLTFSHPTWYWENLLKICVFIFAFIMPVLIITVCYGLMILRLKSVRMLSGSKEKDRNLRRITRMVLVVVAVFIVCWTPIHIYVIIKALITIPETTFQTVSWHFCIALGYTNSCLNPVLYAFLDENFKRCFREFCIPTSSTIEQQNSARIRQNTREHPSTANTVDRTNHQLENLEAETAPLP
smiles,measurement,value
CCC(=O)C(CC(C)N(C)C)(c1ccccc1)c1ccccc1 (stereo not shown) [methadone],IC50,11.7 ± 1.2 nM
